{
  "source": "patent US20120065069A1",
  "about": "“AGENT FOR REDUCING NICOTINE AND HARMFUL COMPONENTS IN TOBACCO LEAVES FOR USE IN FIELD CULTIVATION OF TOBACCO” (TOBACCO RESEARCH INSTITUTE OF HUBEI PROVINCE, priority 2009, published 2012)",
  "origin": "cited, not measured here",
  "key": {"flue-cured tobacco": {"test_system": "flue-cured tobacco", "conditions": "for effect in nicotine reduction: Feng Ding thesis 2006, flue-cured tobacco; for effect in reducing the nicotine content: single ingredient, flue-cured tobacco, Liu et al. 2005 (IAA), Gao et al. 2005 (α-NAA, variety K326)"}, "bean seedling": {"test_system": "bean seedling", "conditions": "2 mmol/L salicylic acid"}, "corn": {"test_system": "corn", "conditions": "0.5 mmol/L salicylic acid"}},
  "data": [
    {"smiles": "C[N+](C)(C)CCO.[Cl-]", "note": "[CC, choline chloride]", "values": [
      {"measurement": "effect in nicotine reduction", "setting": "flue-cured tobacco", "result": "significant effects"}
    ]},
    {"smiles": "O=C(O)COc1ccc(Cl)cc1Cl", "note": "[2,4-D, 2,4-dichlorophenoxyacetic acid]", "values": [
      {"measurement": "effect in nicotine reduction", "setting": "flue-cured tobacco", "result": "significant effects"}
    ]},
    {"smiles": "O=C(O)c1ccccc1O", "note": "[salicylic acid]", "values": [
      {"measurement": "effect on damage of drought stress to bean seedling", "setting": "bean seedling", "result": "alleviate the damage of drought stress"},
      {"measurement": "effect on tolerance of corn to low temperature", "setting": "corn", "result": "enhance the tolerance"}
    ]},
    {"smiles": "O=C(O)Cc1c[nH]c2ccccc12", "note": "[indolylacetic acid]", "values": [
      {"measurement": "effect in reducing the nicotine content", "setting": "flue-cured tobacco", "result": "certain effects"}
    ]},
    {"smiles": "O=C(O)Cc1cccc2ccccc12", "note": "[naphthylacetic acid]", "values": [
      {"measurement": "effect in reducing the nicotine content", "setting": "flue-cured tobacco", "result": "certain effects"}
    ]}
  ]
}
